One may read the melting point as the temperature of the solid-liquid transition. As usually defined, the inhibition is the drop in the measured response relative to a control, in per cent.

This is an account of results in patent US9718773B2, “Substituted 5 membered heterocyclic compounds and preparation thereof” (Council of Scientific and Industrial Research, priority 2014, dated 2017).

The structures appear in SMILES notation. Read-outs that look alike come from different tables or passages of the source.

Series [1] has as its system Mycobacterium smegmatis MC^2155 strain. In words: Anti-mycobacterial growth inhibition assay (turbidometry, 96 well plate). Conditions: Mycolicibacterium smegmatis. It is filed as cell-based. The method, then:
Anti-Mycobacterial Activity Assay:
Anti-mycobacterial activity of the synthesized compounds was performed with Mycobacterium smegmatis MC^2155 strain by performing a growth inhibition assay by agar dilution followed turbidometry method. The assay was semi-throughput and conducted in a 96 well plate (sterile). Isolated single colonies of M. smegmatis MC^2 155 (ATCC 14468) grown on 7H10 agar plate were grown overnight in Middlebrook 7H9 medium (0.47% Middlebrook 7H9 broth base, 10% ADS, 0.2% glycerol, and 0.1% Tween-80) to mid exponential phase at 37° C. When the OD of this culture reached approximately 0.8, a secondary culture was inoculated in 5 ml Middlebrook 7H9 medium. The secondary culture was incubated overnight and allowed to grow at 37° C. to early log phase (OD600≈0.3). For the anti-mycobacterial assay, 98 μl of 1:1000-folds dilution of secondary culture was dispensed into 96-well microtiter plate per well along with 2 μl of test compound in triplicate. 240 μl of sterile water were added to each well of the peripheral rows of 96-well plate to minimize media evaporation during assay incubation. The final concentration of the test compound in each well was 30 μM. Bacterial growth was assessed after 32 hours of incubation by measuring turbidity at 600 nm OD600 values using TECAN Infinite 200 PRO™ (Tecan Instruments, Switzerland). Depending upon the percentage of growth, the percentage of inhibition was calculated at the standard concentration of 30 μM. Isoniazid and Rifampicin were included in every assay plate as positive controls of growth inhibition using stock solutions of INH (10 mg/mL, HiMedia) and Rifampicin (10 mg/mL, HiMedia) to achieve the final concentration of 16 μg/mL for INH and 2 μg/mL for Rifampicin. Additional controls, DMSO (solvent without compound) and medium without inoculums, were included in all the assay plates avoiding intra assay variability. The results were analyzed as the percentage of growth inhibition.

The mark [2] stands for this setting: ATCC14468|MC^2155, test compound 30 μM, bacterial growth after 32 hours by OD600, M. smegmatis MC^2 155 (ATCC 14468), read-out: % Inhibition.

In turn, `CCOC(=O)C[C@@H]1[C@@H](C(NC(=O)OC(C)(C)C)c2ccc(C(F)(F)F)cc2)CN(S(=O)(=O)c2ccc(C)cc2)[C@@H]1C(=O)OCC` (stereo partly shown) registered a melting point of 169 to 170 °C.
Regarding `CCOC(=O)C[C@@H]1[C@@H](C(NC(=O)OC(C)(C)C)c2ccc(Br)cc2)CN(S(=O)(=O)c2ccc(C)cc2)[C@@H]1C(=O)OCC` (stereo partly shown) [IF], the inhibition at 30 µM in series [1] (ATCC14468|MC^2155, 32 h) amounted to 10.8%.
The molecule `CSc1ccc([C@H](NC(=O)OC(C)(C)C)[C@H]2CN(S(=O)(=O)c3ccc(C)cc3)C[C@H]2O)cc1` [Ii, tert-Butyl ((R)-((3R, 4S)-4-hydroxy-1-tosylpyrrolidin-3-yl)(4-(methylthio)phenyl)methyl)carbamate] returned a melting point of 209 to 211 °C.
In turn, `Cc1ccc(S(=O)(=O)N2C[C@H]([C@@H](NC(=O)OC(C)(C)C)c3cccs3)[C@H](O)C2)cc1` [Ij, tert-Butyl ((R)-((3R, 4S)-4-hydroxy-1-tosylpyrrolidin-3-yl)(thiophen-2-yl)methyl) carbamate] displayed a melting point of 186 to 189 °C.
`Cc1ccc(S(=O)(=O)N2C[C@H]3[C@@H](C2)OC(=O)N[C@H]3c2ccc3ccccc3c2)cc1` [Ie, (4R,4aR,7aS)-4-(naphthalen-2-yl)-6-tosylhexahydropyrrolo[3,4-e][1,3]oxazin-2(3H)-one] registered a melting point of 153 to 156 °C.
The same measure, in the same setting: the figure for `Cc1ccc([C@H](NC(=O)OC(C)(C)C)[C@H]2CN(S(=O)(=O)c3ccc(C)cc3)C[C@H]2O)cc1` [Id, tert-butyl ((R)-((3R,4S)-4-hydroxy-1-tosylpyrrolidin-3-yl)(p-tolyl)methyl)carbamate] is 187 to 190 °C.
Still for that read-out and setting: the same measure for `Cc1ccc(S(=O)(=O)N2C[C@H]3[C@@H](C2)OC(=O)N[C@H]3c2ccc(F)cc2)cc1`: 207 to 211 °C; for `Cc1ccc(S(=O)(=O)N2C[C@H]3[C@@H](C2)OC(=O)N[C@H]3c2ccc(Br)cc2)cc1` [If, (4R, 4aR, 7aS)-4-(4-Bromophenyl)-6-tosylhexahydropyrrolo [3,4-e][1,3]oxazin-2(3H)-one]: 210 to 213 °C; for `CCOC(=O)C[C@@H]1[C@@H](C(NC(=O)OC(C)(C)C)c2ccc(Cl)cc2)CN(S(=O)(=O)c2ccc(C)cc2)[C@@H]1C(=O)OCC` (stereo partly shown): 155 to 156 °C.
In the case of `CCOC(=O)C[C@H]1CN(C(=O)OC(C)C)N(C(=O)OC(C)C)[C@@H]1Cc1ccc(SC)cc1` [2g, Diisopropyl (3R,4S)-4-(2-ethoxy-2-oxoethyl)-3-(4-(methylthio)benzyl)pyrazolidine-1,2-dicarboxylate], the inhibition at 30 µM in series [1] (setting [2]) stood at 24.9%.
`Cc1ccc(S(=O)(=O)N2C[C@H]([C@@H](NC(=O)OC(C)(C)C)c3ccc(Cl)cc3)[C@H](O)C2)cc1` [Ib, tert-butyl ((R)-(4-chlorophenyl)((3R,4S)-4-hydroxy-1-tosylpyrrolidin-3-yl)methyl)carbamate] registered a melting point of 203 to 205 °C.
As for `CCOC(=O)C[C@H]1CN(C(=O)OC(C)C)N(C(=O)OC(C)C)[C@@H]1Cc1ccc(OC)cc1` [2e, Diisopropyl (3R,4S)-4-(2-ethoxy-2-oxoethyl)-3-(4-methoxybenzyl)pyrazolidine-1,2-dicarboxylate], in series [1] (setting [2]), the inhibition at 30 µM stood at 14%.
Same read-out and setting: the same measure for `CCOC(=O)C[C@H]1CN(C(=O)OC(C)C)N(C(=O)OC(C)C)[C@@H]1Cc1cc2c(cc1[N+](=O)[O-])OCO2` [2i, Diisopropyl(3R,4S)-4-(2-ethoxy-2-oxoethyl)-3-((6-nitrobenzo[d][1,3]dioxol-5-yl)methyl)pyrazolidine-1,2-dicarboxylate]: 29.3%.
As to `Cc1ccc(S(=O)(=O)N2C[C@H]([C@@H](NC(=O)OC(C)(C)C)c3ccc(C(F)(F)F)cc3)[C@H](O)C2)cc1` [Ic, tert-butyl ((R)-((3R,4S)-4-hydroxy-1-tosylpyrrolidin-3-yl)(4-(trifluoromethyl)phenyl)methyl)carbamate], the melting point is 202 to 204 °C.
Still for that read-out and setting: the same measure for `CCOC(=O)C[C@@H]1[C@@H](C(NC(=O)OC(C)(C)C)c2ccc3ccccc3c2)CN(S(=O)(=O)c2ccc(C)cc2)[C@@H]1C(=O)OCC` (stereo partly shown): 160 to 161 °C.
Turning to `CCOC(=O)C[C@@H]1[C@@H](C(NC(=O)OC(C)(C)C)c2ccccc2)CN(S(=O)(=O)c2ccc(C)cc2)[C@@H]1C(=O)OCC` (stereo partly shown) [IA], in series [1] (ATCC14468|MC^2155, 32 h), at 30 µM the inhibition was 13.5%.
Same read-out and setting: the figure for `CCOC(=O)C[C@@H]1[C@@H](C(NC(=O)OC(C)(C)C)c2ccc(C(F)(F)F)cc2)CN(S(=O)(=O)c2ccc(C)cc2)[C@@H]1C(=O)OCC` (stereo partly shown) [IC] is 0.493%.
Molecule `CCOC(=O)C[C@@H]1[C@@H](C(NC(=O)OC(C)(C)C)c2ccc(C)cc2)CN(S(=O)(=O)c2ccc(C)cc2)[C@@H]1C(=O)OCC` (stereo partly shown) had a melting point of 177 to 178 °C.
On the same count and under the same terms, the same measure for `CCOC(=O)C[C@@H]1[C@@H](C(NC(=O)OC(C)(C)C)c2ccc(F)cc2)CN(S(=O)(=O)c2ccc(C)cc2)[C@@H]1C(=O)OCC` (stereo partly shown): 148 to 150 °C.
In series [1] (ATCC14468|MC^2155, 32 h), `CCOC(=O)C[C@@H]1[C@@H](C(NC(=O)OC(C)(C)C)c2ccc3ccccc3c2)CN(S(=O)(=O)c2ccc(C)cc2)[C@@H]1C(=O)OCC` (stereo partly shown) [IE] returned an inhibition at 30 µM of 20.7%.
On to `CCOC(=O)C[C@@H]1[C@@H](C(NC(=O)OC(C)(C)C)c2ccccc2)CN(S(=O)(=O)c2ccc(C)cc2)[C@@H]1C(=O)OCC` (stereo partly shown), for which the melting point lay in the range of 150 to 151 °C.
In turn, `CCOC(=O)C[C@@H]1[C@@H]([C@@H](NC(=O)OC(C)(C)C)c2ccc(F)cc2)CN(S(=O)(=O)c2ccc(C)cc2)[C@@H]1C(=O)OCC` [IG, ethyl (2S,3R,4R)-4-((R)-((tert-butoxycarbonyl)amino)(4-fluorophenyl)methyl)-3-(2ethoxy-2-oxoethyl)-1-tosylpyrrolidine-2-carboxylate] displayed an inhibition at 30 µM in series [1] (ATCC14468|MC^2155, 32 h) of 18.2%.
With `Cc1ccc(S(=O)(=O)N2C[C@H]([C@@H](NC(=O)OC(C)(C)C)c3ccco3)[C@H](O)C2)cc1`, the melting point lay in the range of 136 to 139 °C.
Consider `CCOC(=O)C[C@@H]1[C@@H](C(NC(=O)OC(C)(C)C)c2ccc(Br)cc2)CN(S(=O)(=O)c2ccc(C)cc2)[C@@H]1C(=O)OCC` (stereo partly shown), for which the melting point lay in the range of 161 to 163 °C.
On the same count and under the same terms, the figure for `Cc1ccc(S(=O)(=O)N2C[C@H]([C@@H](NC(=O)OC(C)(C)C)c3ccccc3)[C@H](O)C2)cc1` [Ia, tert-butyl ((R)-((3R,4S)-4-hydroxy-1-tosylpyrrolidin-3-yl)(phenyl)methyl)carbamate] is 197 to 200 °C.
